Measurements reported in patent publication US12721857B2 (priority 2021, dated 2026).
Read-outs that look alike come from different tables or passages of the source.

Columns and labels:
[1] = oral exposure, within 24-96 hours of ingestion; cited from earlier work
[2] = target: acetylcholinesterase (AChE) (Homo sapiens, UniProt P22303); test: In vitro acetylcholinesterase activity assay; type: biochemical
Procedure: In the AChE assay, a reaction mixture containing DCB was incubated at 20° C. in the dark for 10 min, and 10 μL of AChE solution was then added. For measuring in vitro AChE activity, the test solutions contained DCB at various concentrations, including 5, 25, 50, 100, 200, and 400 µg/mL (FIGS. 13A and 13B). After AChE was added, the reaction mixture was incubated at 20° C. for 10 min, and the absorbance was measured at 405 nm.

[3] = test system: Staphylococcus haemolyticus; test: Agar disk diffusion on urine cultures, Staphylococcus haemolyticus; type: cell-based
Text: (§1) Agar disk diffusion testing was used for antimicrobial susceptibility testing. The test provides qualitative results by categorizing susceptible, intermediate or resistant bacteria. Agar disk diffusion testing cannot distinguish bactericidal and bacteriostatic effects. Moreover, the agar disk-diffusion method is not appropriate to determine the minimum inhibitory concentration (MIC), as it is impossible to quantify the amount of the antimicrobial agent diffused into the agar medium. The advantages of this method, mainly simplicity and low cost, have contributed to its common use for the antimicrobial screening of plant extracts, essential oils, and other drugs.
(§2) The study has been performed on 47 urine samples collected from patients diagnosed with urinary tract infection (UTI), before instituting any type of therapy. Several types of pathogens were identified from the urine cultures performed: Escherichia coli-34 cases; Klebsiella pneumoniae-six cases; Proteus mirabilis-one case; Staphylococcus haemolyticus-one case; Enterococcus faecalis-two cases; Candida albicans-three cases. The susceptibility testing of the pathogens has been performed using DCB-impregnated microdisks to identify the optimal value that induces a significant inhibition of microbial culture development, compared to certified antibiotic/antifungal microdisks. The antibiogram/antifungal was performed on the Müller-Hinton (MH)/Sabouraud medium, and the results obtained using DCB-impregnated microdisks are presented in the Table 7, compared to the action of the reference microdisks.

Enterococcus faecalis = test: Agar disk diffusion on urine cultures, Enterococcus faecalis; type: cell-based
Text: as §1, §2

Escherichia coli = test: Agar disk diffusion on urine cultures, Escherichia coli; type: cell-based
Text: as §1, §2

Klebsiella pneumoniae = test: Agar disk diffusion on urine cultures, Klebsiella pneumoniae; type: cell-based
Text: as §1, §2

Proteus mirabilis = test: Agar disk diffusion on urine cultures, Proteus mirabilis; type: cell-based
Text: as §1, §2

[4] = type: in vitro ADME
Text: FIG. 11 is the in vitro simulation of DCB digestion: stomach (gastric phase, at pH 1.2 and pH 4.5) and duodenum (small intestinal phase, at pH 7.2). (DCB: Chlorogenoborate diester complex);
DCB is protected from acids or/and enzymes in the stomach and small intestine. Chlorogenic acids are, generally, resistant to acid environment and digestive enzymes. […] The DCB complex is dissociated in the colon by borate group transfer to cis-diol sugars, e.g., fructose and sialic acid, in bacteria in the microbiome in the gut mucus membrane. The sugar/borate complexes have a high association constant. […] At a gastric pH of 1.2, DCB undergoes about 50% degradation. When there is food in the stomach, after a meal, the stomach pH can raise to as high as 4-5. Under conditions prevailing after a meal (pH 4.5), DCB undergoes <6% degradation. Under conditions prevailing in the intestines (pH 7.2), DCB undergoes <4% degradation. Thus, when administered with a meal, DCB is protected in the gastrointestinal tract and works as a classical prebiotic. Alternatively, DCB may be administered in a dosage form with an enteric coating which is stable and protects DCB from stomach acids, but which dissolves or breaks down at pH values in the intestines. Suitable enteric polymers include methyl (meth)acrylate-(meth)acrylic acid copolymers, cellulose acetate phthalate (CAP), cellulose acetate succinate, hydroxypropyl methyl cellulose phthalate, hydroxypropyl methyl cellulose acetate succinate, polyvinyl acetate phthalate, and similar polymers.

DPPH scavenging assay = type: biochemical
Candida albicans = test: Agar disk diffusion on urine cultures, Candida albicans; type: cell-based
Text: as §1, §2

[5] = test system: pathogens identified from urine cultures of patients with urinary tract infection; test: Antibiotic/antifungal screening on urine cultures, all pathogens together; type: cell-based
Text: as §1
as §2, with “The antibiogram/antifungal was performed on the Müller-Hinton (MH)/Sabouraud medium, and the results obtained using DCB-impregnated microdisks are presented in the Table 7, compared to the action of the reference microdisks.” left out

L929 cells = type: cell-based; settings: mouse, 24 h
Procedure: In vitro DCB cytotoxicity: The viability of L929 cells treated for 24 hours with different concentrations of DCB was tested by the 3-(4,5-dimethylthiazol-2-yl)-2,5-diphenyltetrazolium bromide (MTT) assay. The MTT assay is commonly used for cytotoxicity, viability, and cell proliferation studies. The treatment of cells with MTT allows the assessment of oxidative metabolism and cellular response to external factors that can have a positive or negative effect on cell survival in culture. This quantitative colorimetric method is based on the reduction of the yellow-colored compound MTT to a dark blue formazan. The reduction of MTT, achieved by mitochondrial enzymes, e.g., succinate dehydrogenase, is directly proportional to the number of viable cells, being an index of cellular/mitochondrial integrity. The optical density is evaluated spectrophotometrically, resulting in a direct relationship between absorbance, dye concentration, and the number of viable and metabolically active cells.
In multi-well plates, L929 cells were plated at a cell concentration of 10^4 cells/cm^2. MTT (1 mg/ml, in a culture medium without serum) and DCB was added to each well. […] The resulting solution was densitometered at 550 nm, there being a direct proportional relationship between the recorded optical density and the number of metabolically active cells.

[6] = In vivo DCB toxicity (acute, subchronic, chronic); design: species or system mice; settings: both sexes, BALB/c, mouse, in vivo, po; acute, p.o. administration in mice; read-out: median lethal dose (LD50)
Procedure: (§3) In vivo DCB toxicity: The laboratory animals and the experimental protocol for determining acute, subchronic and chronic toxicity were established in accordance with the Organization for Economic Co-operation and Development (OECD) Guidelines for Testing of Chemicals. The toxicodynamic experiment was performed on groups of 10 BALB/c mice, eight weeks old, with an average weight of 25 g, the number of females and males being equally distributed (five for each group), which were administered different doses of DCB, at various intervals, as follows: • (i) for the acute experiment (at 24 hours): • (a) per os (p.o.), by oral gavage, five different doses of DCB in distilled water: 5 mg/kg body weight (b.w.), 50 mg/kg b.w., 300 mg/kg b.w., 2000 mg/kg b.w. and 5000 mg/kg b.w.; • (b) intra-peritoneal (i.p), a single dose of DCB, in saline: 50 mg/kg b.w.; • (ii) for the subacute experiment (lasting 28 days), three different daily doses of DCB in drinking water: 50 mg/kg b.w., 300 mg/kg b.w. and 1000 mg/kg b.w.; • (iii) for the chronic experiment (lasting 90 days), three different daily doses of DCB in drinking water: 50 mg/kg b.w., 300 mg/kg b.w. and 1000 mg/kg b.w. Throughout the duration of the experiment, the condition of the animals was monitored daily, at the same hour every day (during morning). Also, the animals were maintained in standard conditions of temperature, humidity, and lighting. Food and water were administered ad libitum. Standard Conditions Include: • A 14-hour light/10-hour dark cycle or 12 light/12 dark cycle; • A temperature of 65-75° F. (~18-23° C.); and • A humidity of 40-60%.
(§4) The control mice were monitored and maintained under the same conditions, only that instead of the DCB they received: • (i) for the acute experiment: (a) distilled water, p.o., by oral gavage and (b) saline, i.p., respectively; • (ii) for the subacute experiment and for the chronic one: only the drinking water normally consumed. […]

BALB/c mice = test: In vivo DCB toxicity (acute, subchronic, chronic)
Procedure: as §3, §4

Sequence of acetylcholinesterase (AChE) (P22303 32-614, species assumed): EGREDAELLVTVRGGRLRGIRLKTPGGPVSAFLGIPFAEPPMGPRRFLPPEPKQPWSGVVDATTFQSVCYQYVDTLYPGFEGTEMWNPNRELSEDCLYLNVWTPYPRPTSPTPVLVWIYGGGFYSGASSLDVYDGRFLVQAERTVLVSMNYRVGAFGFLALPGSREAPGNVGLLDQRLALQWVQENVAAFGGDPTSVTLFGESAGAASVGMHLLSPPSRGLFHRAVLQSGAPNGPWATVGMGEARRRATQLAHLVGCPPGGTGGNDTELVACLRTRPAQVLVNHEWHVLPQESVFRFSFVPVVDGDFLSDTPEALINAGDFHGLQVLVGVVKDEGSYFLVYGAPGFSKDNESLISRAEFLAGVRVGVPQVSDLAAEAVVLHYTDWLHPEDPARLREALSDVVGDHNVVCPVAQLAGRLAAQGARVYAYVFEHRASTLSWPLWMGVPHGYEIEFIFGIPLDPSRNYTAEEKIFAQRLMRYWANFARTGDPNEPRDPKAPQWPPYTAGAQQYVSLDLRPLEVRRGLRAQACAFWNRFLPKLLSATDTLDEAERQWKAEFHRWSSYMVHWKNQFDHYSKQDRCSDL

SMILES: OB(O)O [BA, Boric acid]
- BA absorbed [1]: 81-95%

SMILES: O=C(/C=C/c1ccc(O)c(O)c1)O[C@@H]1C[C@](O)(C(=O)O)C[C@@H](O)[C@H]1O [CA, Chlorogenic acid, reference compound]
- IC50 [2]: 243 µM
- inhibition at 110 µg/mL ([2]; read-out: inhibition of AChE activity): > 80%

SMILES: CO[C@@]1(NC(=O)Cc2cccs2)C(=O)N2C(C(=O)O)=C(COC(N)=O)CS[C@@H]21 [Cefoxitin, reference compound]
- Inhibition diameter (Ø, mm] of microbial culture ([3]; certified microdisk): 25 mm
- Inhibition diameter (Ø, mm] of microbial culture (Enterococcus faecalis; certified microdisk): 23-26 mm

SMILES: O=C(O)c1cn(C2CC2)c2cc(N3CCNCC3)c(F)cc2c1=O [Ciprofloxacin, reference compound]
- Inhibition diameter (Ø, mm] of microbial culture (Escherichia coli; certified microdisk): 28-35 mm
- Inhibition diameter (Ø, mm] of microbial culture (Klebsiella pneumoniae; certified microdisk): 27-34 mm
- Inhibition diameter (Ø, mm] of microbial culture (Proteus mirabilis; certified microdisk): 33 mm

SMILES: O=C(/C=C/c1ccc2c(c1)O[B-]1(O2)Oc2ccc(/C=C/C(=O)O[C@@H]3C[C@](O)(C(=O)O)C[C@@H](O)[C@H]3O)cc2O1)O[C@H]1C[C@@](O)(C(=O)O)C[C@H](O)[C@@H]1O (stereo partly shown) [DCB, diester chlorogenoborate]
- degradation ([4]; pH 1.2): about 50%
- degradation ([4]; pH 4.5): < 6%
- degradation ([4]; pH 7.2): < 4%
- antioxidant activity relative to CA (DPPH scavenging assay): approximately six times more antioxidant activity than CA
- IC50 [2]: 39.5 µM
- factor of AChE inhibition relative to CA [2]: about 3.4
- Inhibition diameter (Ø, mm] of microbial culture (Escherichia coli; 0.025 μM DCB microdisk): 0 mm
- Inhibition diameter (Ø, mm] of microbial culture (Escherichia coli; 2.5 μM DCB microdisk): 6-8 mm
- Inhibition diameter (Ø, mm] of microbial culture (Escherichia coli; 5.0 μM DCB microdisk): 8-14 mm
- Inhibition diameter (Ø, mm] of microbial culture (Escherichia coli; 50 μM DCB microdisk): 29-37 mm
- Inhibition diameter (Ø, mm] of microbial culture (Klebsiella pneumoniae; 0.025 μM DCB microdisk): 0 mm
- Inhibition diameter (Ø, mm] of microbial culture (Klebsiella pneumoniae; 2.5 μM DCB microdisk): 5-7 mm
- Inhibition diameter (Ø, mm] of microbial culture (Klebsiella pneumoniae; 5.0 μM DCB microdisk): 8-15 mm
- Inhibition diameter (Ø, mm] of microbial culture (Klebsiella pneumoniae; 50 μM DCB microdisk): 28-36 mm
- Inhibition diameter (Ø, mm] of microbial culture (Proteus mirabilis; 0.025 μM DCB microdisk): 0 mm
- Inhibition diameter (Ø, mm] of microbial culture (Proteus mirabilis; 2.5 μM DCB microdisk): 0 mm
- Inhibition diameter (Ø, mm] of microbial culture (Proteus mirabilis; 5.0 μM DCB microdisk): 15 mm
- Inhibition diameter (Ø, mm] of microbial culture (Proteus mirabilis; 50 μM DCB microdisk): 35 mm
- Inhibition diameter (Ø, mm] of microbial culture ([3]; 0.025 μM DCB microdisk): 0 mm
- Inhibition diameter (Ø, mm] of microbial culture ([3]; 2.5 μM DCB microdisk): 0 mm
- Inhibition diameter (Ø, mm] of microbial culture ([3]; 5.0 μM DCB microdisk): 11 mm
- Inhibition diameter (Ø, mm] of microbial culture ([3]; 50 μM DCB microdisk): 27 mm
- Inhibition diameter (Ø, mm] of microbial culture (Enterococcus faecalis; 0.025 μM DCB microdisk): 0 mm
- Inhibition diameter (Ø, mm] of microbial culture (Enterococcus faecalis; 2.5 μM DCB microdisk): 0 mm
- Inhibition diameter (Ø, mm] of microbial culture (Enterococcus faecalis; 5.0 μM DCB microdisk): 12-14 mm
- Inhibition diameter (Ø, mm] of microbial culture (Enterococcus faecalis; 50 μM DCB microdisk): 26-29 mm
- Inhibition diameter (Ø, mm] of microbial culture (Candida albicans; 0.025 μM DCB microdisk): 0 mm
- Inhibition diameter (Ø, mm] of microbial culture (Candida albicans; 2.5 μM DCB microdisk): 0 mm
- Inhibition diameter (Ø, mm] of microbial culture (Candida albicans; 5.0 μM DCB microdisk): 12-18 mm
- Inhibition diameter (Ø, mm] of microbial culture (Candida albicans; 50 μM DCB microdisk): 37-40 mm
- antimicrobial activity compared with certified microdisks ([5]; 50 μM DCB-impregnated microdisks): comparable to, or superior to, that of the certified microdisks
- influence on the growing pathogens ([5]; 0.025 to 2.5 μM DCB): little or no influence on the growing pathogens
- impact on cell viability compared with 5% aqueous DMSO control (L929 cells): much less impact on MTT concentration, and thus cell viability, than a negative control treated with 5% aqueous DMSO
- LD50 at 24 h [6]: > 5000 mg/kg
- histopathology of internal organs (BALB/c mice; acute (24 hours), subchronic (28 days) and chronic (90 days) experiments): normal aspects were highlighted for all internal organs analyzed
- acute toxicity class (OECD) (BALB/c mice; p.o. administration in mice): Category V, practically non-toxic
- pKa (physchem): ~4

SMILES: OC(Cn1cncn1)(Cn1cncn1)c1ccc(F)cc1F [Fluconazole, reference compound]
- Inhibition diameter (Ø, mm] of microbial culture (Candida albicans; certified microdisk): 29-33 mm
